{
  "source": "patent US20240285670A1",
  "about": "“THERAPEUTIC TREATMENT OF TUMORS BY BLOCKING THE HEME SYNTHESIS-EXPORT AXIS” (Università degli Studi di Torino, priority 2021, published 2024)",
  "key": {"C80 cells": {"test_system": "C80 cells", "test": "Activity of mitochondrial ETC complexes I-IV in C80 cells", "type": "cell-based, human", "conditions": "FLVCR1a-silenced vs scramble shRNA C80 cells", "excerpt": "(A, C, E) Activities of the mitochondrial electron transport chain complexes I-IV. FLVCR1a-silenced Caco2 (A), SKCO1 (C) or C80 cells (E) are compared to cells expressing a scramble shRNA. Results were expressed as nmol NAD^+/min/mg mitochondrial protein for complex I, nmol reduced cytochrome c/min/mg mitochondrial protein for complexes II-III, nmol oxidized cytochrome c/min/mg mitochondrial protein for complex IV. Data represent mean±SEM, n=3. For statistical analyses, an unpaired Student's t-test was used; *=p<0.05, **=p<0.01. (B, D, F) Mitochondrial ATP levels measured by a bioluminescent assay kit. FLVCR1a-silenced Caco2 (B), SKCO1 (D) or C80 cells (F) are compared to cells expressing a scramble shRNA. Results are expressed as nmol/mg mitochondrial proteins. Data represent mean±SEM, n=3. […] Results were expressed as nmol NAD^+/min/mg mitochondrial protein for complex I, nmol reduced cytochrome c/min/mg mitochondrial protein for complexes II-III, nmol oxidized cytochrome c/min/mg mitochondrial protein for complex IV. […] (H) Mitochondrial ATP levels measured by a bioluminescent assay kit in Caco2 cells overexpressing FLVCR1a (indicated as FLVCR1a+) compared to cells stably transduced with an empty vector. Results are expressed as nmol/mg mitochondrial proteins. […]\nThe activity of mitochondria respiration complexes was measured according to (Wibom et al., 2002)."}, "Caco2 cells": {"test_system": "Caco2 cells", "test": "Heme content (fluorescence assay) in Caco2 cells", "type": "cell-based, human", "conditions": "FLVCR1a-silenced vs scramble shRNA Caco2 cells, 5 mM 5-ALA, time course", "experimental": "(A) Heme content in Caco2 cells treated with 5 mM 5-ALA (black bars and white bars) or with 5 mM 5-ALA+0.5 mM SA (light grey outlined bars) for the indicated time points. […] Values are expressed as relative fluorescence intensity. Data represent mean±SEM, n=2. For statistical analyses, a two-way analysis of variance was used, followed by the Bonferroni correction for multiple group comparisons; **=p<0.01, ***=p<0.001. 5-ALA, 5-aminolevulinic acid; SA, succinylacetone. (B) Intracellular 5-ALA levels. […] Values are expressed as peak area/μg proteins. Data represent mean±SEM of n=4 wells pooled from two independent experiments. For statistical analyses, an unpaired Student's t-test was used; **=p<0.01. 5-ALA, 5-aminolevulinic acid. […] Values are expressed as peak area/μg proteins. […] Transcript abundance, normalized to beta-actin mRNA expression, is expressed as a fold increase over a calibrator sample. […] Band intensities were measured by densitometry and normalized to vinculin expression. […]\nIntracellular heme concentration was measured using a fluorescence assay, as previously reported (Sinclair et al., 2001). […] Fluorescence (wavelength: excitation 405 nm-emission 660-720 nm) of the resultant protoporphyrin was assessed on a Glomax Multi Detection System (Promega Corporation, Madison WI, USA).\nThe endogenous protoporphyrin content (measured in parallel unheated samples in oxalic acid) was subtracted. […]"}},
  "data": [
    {"substance": "FLVCR1a shRNA: shRNA specifically down-regulating FLVCR1a without targeting FLVCR1b; pLKO.1 lentiviral clone TRCN0000059599, antisense SEQ ID No.: 2 (antisense TTGCTAATGATGCTGTACTGG; sense CCAGTACAGCATCATTAGCAA)", "values": [
      {"measurement": "ETC complexes activity", "setting": "C80 cells", "value": "increased ETC complexes activity"},
      {"measurement": "intracellular heme upon induction of heme biosynthesis", "setting": "Caco2 cells", "value": "faster and higher increase in the amount of intracellular heme than control cells"}
    ]}
  ]
}
